Patent publication US20250179059A1 (The Regents of the University of California, priority 2021, published 2025)

Columns and labels:
[1] = target: T1, human BRD4 bromodomain II (Homo sapiens, UniProt O60885); assay: Bromodomain binding assay (AlphaScreen), BRD4 BDII; conditions: BRD4 BDII AlphaScreen assay; read-out: BRD4 BD2 IC50
T1 construct: human BRD4 bromodomain II [based on Genbank NM_058243, residues 349-460]; host or cells: E. coli
Outline: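 AlphaScreen competition with biotinylated H4 peptide (aa 1-21, K5/K8/K12/K16Ac), using nickel-chelate acceptor and streptavidin donor beads. Targets were His6-BRD4 BDI (44-170) or BDII (349-460), with a 30 min compound preincubation over a 10-point 3-fold series. IC50 was fitted from percentage peptide binding.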

[2] = tested on: human SKM-1 acute myeloid leukemia cells; assay: SKM-1 antiproliferation cell-based assay (ATPlite); conditions: Homo sapiens, SKM-1, SKM-1 antiproliferation assay
Outline: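 Log-phase cells in RPMI 1640/15% FBS were seeded at 34722 cells/mL and exposed for 4 days to nine-concentration DMSO serial dilutions in triplicate. Viability was read as ATP luminescence (ATPlite 1step), and IC50 values came from variable-slope non-linear regression.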

Row | SMILES | IC50 [1] | GI50 [2]
1 | COc1ncc(-c2nc(C)cc(-c3ccc(-n4ccn(C)c4=O)c(F)c3)c2O)cc1N1CCN(C(C)(C)C)CC1 [Example 997, 1-(4-(5′-(4-(tert-butyl)piperazin-1-yl)-3-hydroxy-6′-methoxy-6-methyl-[2,3′-bipyridin]-4-yl)-2-fluorophenyl)-3-methyl-1H-imidazol-2(3H)-one] | 1 to 10 nM | 0.3 to 30 nM
2 | Cc1cc(-c2ccc(-n3ccn(C)c3=O)c(Cl)c2)c(O)c(-c2ccnc(N3CCN(C(C)(C)C)CC3)c2)n1 [Example 998, 1-(4-(2′-(4-(tert-butyl)piperazin-1-yl)-3-hydroxy-6-methyl-[2,4′-bipyridin]-4-yl)-2-chlorophenyl)-3-methyl-1H-imidazol-2(3H)-one] | 1 to 10 nM | 0.3 to 30 nM
3 | Cc1cc(-c2ccc(-n3ccn(C)c3=O)c(Cl)c2)c(O)c(-c2cc(Cl)cc(N3CCN(C(C)(C)C)CC3)c2)n1 [Example 999, 1-(4-(2-(3-(4-(tert-butyl)piperazin-1-yl)-5-chlorophenyl)-3-hydroxy-6-methylpyridin-4-yl)-2-chlorophenyl)-3-methyl-1H-imidazol-2(3H)-one] | 1 to 10 nM | 0.3 to 30 nM
4 | Cc1cc(-c2ccc(-n3ccn(C)c3=O)c(Cl)c2)c(O)c(-c2ccc(F)c(N3CCN(C(C)(C)C)CC3)c2)n1 [Example 1000, 1-(4-(2-(3-(4-(tert-butyl)piperazin-1-yl)-4-fluorophenyl)-3-hydroxy-6-methylpyridin-4-yl)-2-chlorophenyl)-3-methyl-1H-imidazol-2(3H)-one] | 1 to 10 nM | 0.3 to 30 nM
5 | Cc1cc(-c2ccc(-n3ccn(C)c3=O)c(F)c2)c(O)c(-c2cnc(C)c(N3CCN(C(C)(C)C)CC3)c2)n1 [Example 1001, 1-(4-(5′-(4-(tert-butyl)piperazin-1-yl)-3-hydroxy-6,6′-dimethyl-[2,3′-bipyridin]-4-yl)-2-fluorophenyl)-3-methyl-1H-imidazol-2(3H)-one] | 1 to 10 nM | 0.3 to 30 nM
6 | Cc1cc(-c2ccc(-n3ccn(C)c3=O)c(Cl)c2)c(O)c(-c2cc(N3CCN(C(C)(C)C)CC3)n3ccnc3c2)n1 [Example 1002, 1-(4-(2-(5-(4-(tert-butyl)piperazin-1-yl)imidazo[1,2-a]pyridin-7-yl)-3-hydroxy-6-methylpyridin-4-yl)-2-chlorophenyl)-3-methyl-1H-imidazol-2(3H)-one] | 1 to 10 nM | 0.3 to 30 nM
7 | Cc1cc(-c2ccc(-n3ccn(C)c3=O)c(F)c2)c(O)c(-c2cccc(N3CCN(C(C)(C)C)CC3)c2)n1 [Example 1003, 1-(4-(2-(3-(4-(tert-butyl)piperazin-1-yl)phenyl)-3-hydroxy-6-methylpyridin-4-yl)-2-fluorophenyl)-3-methyl-1H-imidazol-2(3H)-one] | 1 to 10 nM | 0.3 to 30 nM
8 | Cc1cc(-c2ccc(-n3ccn(C)c3=O)c(Cl)c2)c(O)c(-c2cncc(N3CCN(C(C)(C)C)CC3)c2)n1 [Example 1004, 1-(4-(5′-(4-(tert-butyl)piperazin-1-yl)-3-hydroxy-6-methyl-[2,3′-bipyridin]-4-yl)-2-chlorophenyl)-3-methyl-1H-imidazol-2(3H)-one] | 1 to 10 nM | 0.3 to 30 nM
9 | COc1ncc(-c2nccc(-c3ccc(-n4ccn(C)c4=O)c(Cl)c3)c2O)cc1N1CCN(C(C)(C)C)CC1 [Example 1005, 1-(4-(5′-(4-(tert-butyl)piperazin-1-yl)-3-hydroxy-6′-methoxy-[2,3′-bipyridin]-4-yl)-2-chlorophenyl)-3-methyl-1H-imidazol-2(3H)-one] | 1 to 10 nM | 0.3 to 30 nM
10 | CC(=O)Nc1ccc(-c2cc(C)nc(-c3cccc(N4CCN(C(C)(C)C)CC4)c3)c2O)cc1Cl [Example 1007, N-(4-(2-(3-(4-(tert-butyl)piperazin-1-yl)phenyl)-3-hydroxy-6-methylpyridin-4-yl)-2-chlorophenyl)acetamide] | 1 to 10 nM | 0.3 to 30 nM
11 | [2H]C([2H])([2H])C(=O)Nc1ccc(-c2cc(C)nc(-c3cccc(N4CCN(C(C)(C)C)CC4)c3)c2O)cc1Cl [Example 1008, N-(4-(2-(3-(4-(tert-butyl)piperazin-1-yl)phenyl)-3-hydroxy-6-methylpyridin-4-yl)-2-chlorophenyl)-2,2,2-trideuteroacetamide] | 1 to 10 nM | 0.3 to 30 nM
12 | Cc1cc(-c2ccc(-n3ccn(C)c3=O)c(Cl)c2)c(O)c(-c2cc(N3CCN(C(C)(C)C)CC3)n(C)c(=O)c2)n1 [Example 1009, 6′-(4-(tert-butyl)piperazin-1-yl)-4-(3-chloro-4-(3-methyl-2-oxo-2,3-dihydro-1H-imidazol-1-yl)phenyl)-3-hydroxy-1′,6-dimethyl-[2,4′-bipyridin]-2′(1′H)-one] | 1 to 10 nM | 0.3 to 30 nM
13 | Cc1cc(-c2ccc(-n3ccn(C)c3=O)c(Cl)c2)c(O)c(-c2cc(Cl)c(F)c(N3CCN(C(C)(C)C)CC3)c2)n1 [Example 1010, 1-(4-(2-(3-(4-(tert-butyl)piperazin-1-yl)-5-chloro-4-fluorophenyl)-3-hydroxy-6-methylpyridin-4-yl)-2-chlorophenyl)-3-methyl-1H-imidazol-2(3H)-one] | 0.01 to 1 nM | 0.3 to 30 nM
14 | Cc1cc(-c2ccc(-n3ccn(C)c3=O)c(Cl)c2)c(O)c(-c2cc(N3CCN(C(C)(C)C)CC3)c(=O)n(C)c2)n1 [Example 1011, 5′-(4-(tert-butyl)piperazin-1-yl)-4-(3-chloro-4-(3-methyl-2-oxo-2,3-dihydro-1H-imidazol-1-yl)phenyl)-3-hydroxy-1′,6-dimethyl-[2,3′-bipyridin]-6′(1′H)-one] | 10 to 100 nM | 0.3 to 30 nM
15 | Cc1cc(-c2ccc(-n3ccn(C)c3=O)c(C)c2)c(O)c(-c2cccc(N3CCN(C(C)(C)C)CC3)c2)n1 [Example 1012, 1-(4-(2-(3-(4-(tert-butyl)piperazin-1-yl)phenyl)-3-hydroxy-6-methylpyridin-4-yl)-2-methylphenyl)-3-methyl-1H-imidazol-2(3H)-one] | 1 to 10 nM | 0.3 to 30 nM
16 | Cc1cc(-c2ccc(-n3ccn(C)c3=O)c(Cl)c2)c(O)c(-c2ccc(Cl)c(N3CCN(C(C)(C)C)CC3)c2)n1 [Example 1013, 1-(4-(2-(3-(4-(tert-butyl)piperazin-1-yl)-4-chlorophenyl)-3-hydroxy-6-methylpyridin-4-yl)-2-chlorophenyl)-3-methyl-1H-imidazol-2(3H)-one] | 1 to 10 nM | 0.3 to 30 nM
17 | Cc1cc(-c2ccc(-n3ccn(C)c3=O)c(Cl)c2)c(O)c(-c2cc(F)cc(N3CCN(C(C)(C)C)CC3)c2)n1 [Example 1014, 1-(4-(2-(3-(4-(tert-butyl)piperazin-1-yl)-5-fluorophenyl)-3-hydroxy-6-methylpyridin-4-yl)-2-chlorophenyl)-3-methyl-1H-imidazol-2(3H)-one] | 0.01 to 1 nM | 0.3 to 30 nM
18 | COc1ncc(-c2nc(C)cc(-c3ccc(-n4ccn(C)c4=O)c(C)c3)c2O)cc1N1CCN(C(C)(C)C)CC1 [Example 1015, 1-(4-(5′-(4-(tert-butyl)piperazin-1-yl)-3-hydroxy-6′-methoxy-6-methyl-[2,3′-bipyridin]-4-yl)-2-methylphenyl)-3-methyl-1H-imidazol-2(3H)-one] | 1 to 10 nM | 0.3 to 30 nM
19 | Cc1cc(-c2cccc(N3CCN(C(C)(C)C)CC3)c2)c(O)c(-c2ccc(-n3ccn(C)c3=O)c(Cl)c2)c1 [Example 1016, 1-(3″-(4-(tert-butyl)piperazin-1-yl)-3-chloro-2′-hydroxy-5′-methyl-[1,1′:3′,1″-terphenyl]-4-yl)-3-methyl-1H-imidazol-2(3H)-one] | 0.01 to 1 nM | 0.3 to 30 nM
20 | Cc1cc(-c2ccc(-n3ccn(C)c3=O)c(Cl)c2)c(O)c(-c2cnnc(N3CCN(C(C)(C)C)CC3)c2)n1 [Example 1017, 1-(4-(2-(6-(4-(tert-butyl)piperazin-1-yl)pyridazin-4-yl)-3-hydroxy-6-methylpyridin-4-yl)-2-chlorophenyl)-3-methyl-1H-imidazol-2(3H)-one] | 1 to 10 nM | 30 to 300 nM
21 | Cn1cc(-c2ccc(-n3ccn(C)c3=O)c(Cl)c2)c(O)c(-c2cccc(N3CCN(C(C)(C)C)CC3)c2)c1=O [Example 1018, 3-(3-(4-(tert-butyl)piperazin-1-yl)phenyl)-5-(3-chloro-4-(3-methyl-2-oxo-2,3-dihydro-1H-imidazol-1-yl)phenyl)-4-hydroxy-1-methylpyridin-2(1H)-one] | 10 to 100 nM | 30 to 300 nM
22 | Cc1cc(-c2ccc(-n3ccn(C)c3=O)c(C)c2)c(O)c(-c2cnc(C)c(N3CCN(C(C)(C)C)CC3)c2)n1 [Example 1019, 1-(4-(5′-(4-(tert-Butyl)piperazin-1-yl)-3-hydroxy-6,6′-dimethyl-[2,3′-bipyridin]-4-yl)-2-methylphenyl)-3-methyl-1,3-dihydro-2H-imidazol-2-one] | 1 to 10 nM | 0.3 to 30 nM
23 | Cn1ccn(-c2ccc(-c3cnnc(-c4cccc(N5CCN(C(C)(C)C)CC5)c4)c3O)cc2Cl)c1=O [Example 1020, 1-(4-(6-(3-(4-(tert-Butyl)piperazin-1-yl)phenyl)-5-hydroxypyridazin-4-yl)-2-chlorophenyl)-3-methyl-1H-imidazol-2(3H)-one] | > 100 nM | 300 to 3000 nM
24 | Cn1ccn(-c2ccc(-c3cccc(-c4cccc(N5CCN(C(C)(C)C)CC5)c4)c3O)cc2Cl)c1=O [Example 1021, 1-(3″-(4-(tert-butyl)piperazin-1-yl)-3-chloro-2′-hydroxy-[1,1′:3′,1″-terphenyl]-4-yl)-3-methyl-1H-imidazol-2(3H)-one] | 0.01 to 1 nM | 0.3 to 30 nM
